Experimental data reported in patent US11667630B2, “Nitrogen-containing 6-membered cyclic compound” (Asahi Kasei Pharma Corporation, priority 2017, dated 2023).

Legend:
[1] = system: rat femur closed fracture model; test: Fracture healing-promoting action in rat femur closed fracture model; format: in vivo; details: SD rats; for Bone union rate after 25 days (%): judged on soft X-ray images; for Maximum torque (N · cm): torsion test of femur four weeks after fracture
Source text: In order to investigate fracture healing-promoting action of the compounds of the present invention, influence of injection of microspheres containing a test compound at a fracture site of a rat femur closed fracture model was confirmed.
Thirteen weeks old female SD rats (Japan SLC) were fixed in the side lying position under triple anesthesia (medetomidine hydrochloride, midazolam, and butorphanol tartrate). After hair of a region from the left knee to the femoral region was shaved with a hair clipper, and disinfection treatment was performed with povidone-iodine listed in Japanese Pharmacopoeia (Isodine solution for animals, 20 mg of povidone-iodine listed in Japanese Pharmacopoeia in 1 mL, Meiji Seika Pharma), the skin of the knee part and the medial great muscle of the lateral part of the patella were excised, and the patella was shifted from the femoral head. A drill bit attached to a trephine was put on the intercondylar fossa of the exposed femoral head, and manually rotated to make a bore. A Kirschner wire (Mizuho Co., Ltd.) having a diameter of 1.2 mm preliminarily cut in a length of 31 mm was inserted into the medullary cavity of the femur through the bore. Then, the left femoral region was fixed on a three-point bending test jig of a small desktop universal testing machine (EZ Test, Shimadzu Corp.), and closed fracture of the femoral diaphyseal was caused by giving a dynamic load. Whether fracture was successfully introduced or not was confirmed by confirming generation of a complete transverse fracture in the femoral diaphyseal on an X-ray image obtained with a soft X-ray generator (M-100W, Softex) and a digital X-ray sensor (NX-04, RF Co., Ltd.). A microsphere suspension obtained by suspending microspheres (prepared according to the method of Preparation Example 3) containing a test compound (compound of Example 23) in a CMC solution was injected into the fracture part in a volume of 100 μL as the administration volume (containing 100 or 300 μg of the test compound). As the control group, a drug liquid obtained by suspending the microspheres not containing the aforementioned test compound in the CMC solution (100 μL) alone was administered. One, two, and three weeks after the generation of fracture, soft X-ray images were taken under isoflurane anesthesia, and the areas of the callus part in the X-ray images were quantified by using Image J. Four weeks after the generation of fracture, soft X-ray images were taken under triple anesthesia, the animals were fixed in the supine position, and euthanized by bleeding, and the left femurs were extracted. […] The femur samples were cryopreserved until implementation of a bone strength test, and torsional strength was measured on the test day by using a bone strength measurement apparatus (MZ-500S, Maruto Instrument Co., Ltd.).

[2] = system: dog lumbar vertebrae posterolateral fixation model; test: Bone union-promoting action in dog lumbar vertebrae posterolateral fixation model; format: in vivo; details: twelve weeks after operation; for Continuity score based on soft X-ray image (Mean ± SD): grades 0 to 3 per Table 9; for Manual evaluation of bone union: beagle dogs, microspheres containing compound of Example 23 mixed with autologous bone graft, animals with union/5
Experimental: In order to investigate a bone union-promoting action in the spinal fusion of the compounds of the present invention, influence of mixing of microspheres containing a test compound at the time of autologous bone grafting was confirmed by using a lumbar vertebrae posterolateral fixation model.
Twelve to thirteen months old male beagle dogs ([…] LABES) were anesthetized by administration of a 1:1 mixture of ketamine hydrochloride (Ketalar 500 mg, Daiichi Sankyo Propharma Co., Ltd.) and xylazine (Selactar 2% Injection, Bayer Yakuhin, Ltd.) at a dose of about 0.5 mL/kg, and Japanese Pharmacopoeia-listed isoflurane (Elucaine, produced by Mylan Pharmaceutical) was inhaled with an inhaler IMPAC6 (VetEquip Inc.) to maintain the anesthesia. The animal was fixed in the prone position, hair of a wide area over the right and left spina iliaca posterior superiors, part around iliac crest, and lower back was shaved, and disinfection treatment was performed with povidone-iodine listed in Japanese Pharmacopoeia (Isodine solution for animals, 20 mg of povidone-iodine listed in Japanese Pharmacopoeia in 1 mL, Meiji Seika Pharma) and ethanol for disinfection (Wako Pure Chemical Industries). […] About 2 g each of the right and left iliums were extracted by using a rongeur and bone scissors, and astriction was performed. The collected ilium, from which the soft tissues were removed, was finely broken with bone scissors, and thereby made into chips of 1 mm size to obtain 2 g each of bone grafts for right and left. Then, the skin was dissected along the spinous processes of lower back with a scalpel, the left and right lumbodorsal fascias were dissected, and then the transverse processes of the fourth and fifth lumbar vertebrae were exposed while the multifidus muscle and longissimus muscle were separated and dissected between the fascias thereof. The soft tissues adhering to the transverse processes were removed, and then decortication of the cortical bone on the surface of the transverse processes was performed with an electric drill (OS-40MV2, Osada Electric Co., Ltd.) to prepare a bone graft bed. The bone graft (2 g) prepared above was sufficiently mixed with a microsphere suspension obtained by suspending microspheres containing a test compound (compound of Example 23) in an amount corresponding to 10, 30, or 100 μg of the test compound (prepared according to the method of Preparation Example 1) in 800 μL of a CMC solution, embedded and grafted on the transverse processes of the fourth and fifth lumbar vertebrae, and the bone graft bed between the transverse processes. After the autologous bone grafting, the lumbodorsal fascia, subcutaneous tissues, and skin were sutured, and the surgical site was disinfected. Twelve weeks after the operation, the animals were euthanized with overdose (30 mg/kg) of sodium pentobarbiturate (Somnopentyl, Kyoritsuseiyaku Corporation), and then the lumbar vertebrae were extracted. Bone union was judged by manually confirming movability of the fourth and fifth lumbar vertebrae (manual palpation) under blinding, and soft X-ray images were obtained from one direction by using Softex M-60 (Softex). The test was performed with the groups each consisting of 5 animals.

[3] = microspheres (Preparation Example 3) containing compound of Example 23, 100 μg injected into fracture part
[4] = microspheres (Preparation Example 3) containing compound of Example 23, 300 μg injected into fracture part
[5] = microspheres containing compound of Example 23, 100 μg
[6] = microspheres containing compound of Example 23, 300 μg

O=C(O)c1ccc(CCN2C(=O)SCCN2CC[C@@H](O)Cc2cccc(C#Cc3ccsc3)c2)s1 [Example 23, (S)-5-(2-(4-(3-Hydroxy-4-(3-(thiophen-3-ylethynyl)phenyl)butyl)-2-oxo-1,3,4-thiadiazinan-3-yl)ethyl)thiophene-2-carboxylic acid]
Callus area (mm^2) One week after fracture [1, 3]: 5.24 ± 2.87 mm^2
Callus area (mm^2) Three weeks after fracture [1, 3]: 35.9 ± 6.3 mm^2
Callus area (mm^2) Two weeks after fracture [1, 3]: 28.6 ± 4.7 mm^2
Callus area (mm^2) One week after fracture [1, 4]: 6.01 ± 2.75 mm^2
Callus area (mm^2) Three weeks after fracture [1, 4]: 33.8 ± 6.8 mm^2
Callus area (mm^2) Two weeks after fracture [1, 4]: 28.9 ± 3.8 mm^2
Bone union rate after 25 days (%) [1, 5]: 90.0%
Maximum torque (N · cm) [1, 5]: 20.4 ± 7.1 N · cm
Bone union rate after 25 days (%) [1, 6]: 85.7%
Maximum torque (N · cm) [1, 6]: 26.3 ± 11.7 N · cm
Continuity score based on soft X-ray image (Mean ± SD) ([2]; 10 μg/site): 2.4 ± 0.5
Continuity score based on soft X-ray image (Mean ± SD) ([2]; 30 μg/site): 2.6 ± 0.5
Continuity score based on soft X-ray image (Mean ± SD) ([2]; 100 μg/site): 2.8 ± 0.4
Manual evaluation of bone union ([2]; 10 μg/site): 4/5
Manual evaluation of bone union ([2]; 30 μg/site): 4/5
Manual evaluation of bone union ([2]; 100 μg/site): 4/5
